Test results reported in patent US20240075050A1, “Methods and Compositions for Treating Leucine Rich Repeat Kinase 2 (LRRK2)-Associated Disorder or Condition” (University of Connecticut, priority 2022, published 2024).

Legend:
DCP2 = DCP2 expression levels in SH-SY5Y cells, Western blot; assay type: cell-based, human; conditions: 1 mM, 48 hours
Description: FIGS. 6A-6E depict that the decapping enzyme complex DCP1/2 is involved in LRRK2 mRNA decay. FIGS. 6A and 6B depict the DCP1A and DCP2 expression levels upon AICAr treatment. SH-SY5Y cells were treated with or without 1 mM AICAr for 48 hours. DCP1A and DCP2 expression levels were analyzed by Western blot. Images were quantified by ImageJ software. Data are mean±SEM, n=3 independent experiments. **p<0.01 by Student's t tests. FIGS. 6C and 6D depict the LRRK2 expression levels upon DCP1A or DCP2 overexpression. SH-SY5Y cells were transduced with lentiviruses carrying Flag-DCP1A or Flag-DCP2 for 48 hours. LRRK2 expression levels were analyzed by Western blot. Images were quantified by ImageJ software. Data are mean±SEM, n=3 independent experiments. *p<0.05 by Student's t tests. FIG. 6E depict LRRK2 mRNA decapping by DCP1A and DCP2. Recombinant DCP1A and DCP2 proteins were purified from HEK 293T cells and incubated with [α-32P]cap-labeled LRRK2 RNA. LRRK2 mRNA decapping was analyzed by one-dimensional thin layer chromatography.

CD68 = test: LPS-induced neuroinflammation in mice, CD68 levels; assay type: in vivo, mouse; conditions: 21 days; for LPS-induced CD68 levels in SNpc: AICAr 2.4 μg/day/animal, immunostaining
Description: FIGS. 9A-9F depict that AICAr rescues LPS-induced DA neurodegeneration and inflammation in mice, which acts through LRRK2. FIG. 9A depicts representative images of DAneuron staining. WT and LRRK-KO mice were injected with 1 ul LPS (5 ug/animal) or phosphate buffered saline (PBS) into the substantia nigra pars compacta (SNpc) and administrated with AICAr (2.4 μg/day/animal) or saline to same stereotaxic coordinates using osmotic pumps. After 21 days of injection, DA neurons were stained by anti-tyrosine hydroxylase (TH) antibody. Scale bars, […]. FIG. 9B depicts quantification of TH positive neurons in substantia nigra pars compacta (SNpc) using an unbiased stereological method with stereo investigator software from 7-8 animals per group. FIG. 9C depicts quantification of Niss1-positive neurons in SNpc using an unbiased stereological method with stereo investigator software from 7-8 animals per group. FIG. 9D depicts the CD68 levels in SNpc tissues near the needle sites analyzed by immunostaining. Scale bars, 100 μm. FIG. 9E depicts the CD68 levels in WT and LRRK-KO mice injected with 1 μl LPS (5 μg/animal) or PBS into striatum followed by administration of AICAr (2.4 μg/day/animal) or saline to same stereotaxic coordinates using osmotic pumps. After 21 days of injection, LRRK2 and CD68 expression in striatal tissues near the needle sites was analyzed by Western blot. FIG. 9F depicts quantification of images from (FIG. 9E) using ImageJ software, n=3 animals per group. Data information: Data are mean±SEM. ***p<0.001, ****p<0.0001 by one-way ANOVA followed by a Tukey's post hoc test. ns: not statistically significant.
Stereotaxic intracranial injection. […]
Immunohistochemistry. […] After antigen retrieval with 10 mM sodium citrate (pH 6.0) and 0.05% Tween-20 at 37° C. for 30 minutes, brain sections were washed in PBS for three times, permeabilized with 0.3% Triton X-100 in PBS, blocked with 10% goat serum in PBS, incubated with anti-tyrosine hydroxylase (TH) antibody overnight at 4° C., and then detected with Biotin-SP goat anti-rabbit IgG antibody at room temperature for 2 hours. […]

NC(=O)c1ncn([C@@H]2O[C@H](CO)[C@@H](O)[C@H]2O)c1N [AICAr, 5-aminoimidazole-4-carboxamide riboside]
endogenous levels of DCP2 (DCP2): significantly increased | LPS-induced CD68 levels in SNpc (CD68; LRRK2 KO mice): did not significantly rescue | CD68 levels stimulated by LPS in striatum (CD68; WT mice, AICAr 2.4 μg/day/animal into striatum, Western blot): significantly reduced | LPS-induced CD68 levels in SNpc (CD68; WT mice): significantly reduced
